Laboratory results as given in patent publication US12010991B1, “Microemulsion with disinfectant properties” (priority 2021, dated 2024).
Read-outs that look alike come from different tables or passages of the source.

Cc1ccc(C(C)C)cc1O [Example 2, Carvacerol]
H2O (clarity) (Solvent C8-10 Acid Ethanol, Surfactant/Solubilizer Polysorbate 20): Clear
H2O (clarity) (Solvent Ethanol, Surfactant/Solubilizer Polysorbate 20): Cloudy
H2O (clarity) (Solvent NONE, Surfactant/Solubilizer Polysorbate 20 Polysorbate 80): Clear
H2O (clarity) (Solvent NONE, Surfactant/Solubilizer Quat 242 Ti-Nat): Clear
H2O (clarity) (Solvent Propanediol, Surfactant/Solubilizer AB-1 (first entry)): Not Clear
H2O (clarity) (Solvent Propanediol, Surfactant/Solubilizer AB-1 (second entry)): Not Clear
H2O (clarity) (Solvent Propanediol, Surfactant/Solubilizer Polyglycerol): Not Clear
H2O (clarity) (Solvent Propanediol, Surfactant/Solubilizer Polyglycerol D9): Not Clear
H2O (clarity) (Solvent Propanediol, Surfactant/Solubilizer Polyglycerol D9 SugarNate): Not Clear
H2O (clarity) (Solvent Propanediol, Surfactant/Solubilizer Quat 242 Ti-Nat): Not Clear
H2O (clarity) (Solvent Propanediol, Surfactant/Solubilizer Quat 242 Ti-Nat AB-1): Not Clear
H2O (clarity) (Solvent Propanediol, Surfactant/Solubilizer SugaNate 160): Not Clear
